For assay [1], the species on record is Homo sapiens. As to the kind of experiment: Binding affinity to GST by microarray at 0.5 uM.
Assay [2] deals with Antithrombin-III (Homo sapiens) (UniProt P01008). As to the kind of experiment: Binding affinity to antithrombin by microarray at 0.5 uM.
In assay [3] the target is Insulin (Homo sapiens) (UniProt P01308). As to the kind of experiment: Binding affinity to insulin by microarray at 0.5 uM.
In assay [4] the target is Prothrombin (Homo sapiens) (UniProt P00734). As to the kind of experiment: Binding affinity to thrombin by microarray at 0.5 uM.
Assay [5] in a line: Inhibition of trivalent GlcNAc binding to wheat germ agglutinin with irradiation by microarray. More on the design: species or system Triticum aestivum.
Assay [6] concerns Sambucus nigra. As to the kind of experiment: Binding affinity to Sambucus nigra A lectin by microarray at 0.5 uM.
The species named for assay [7] is Homo sapiens. As to the kind of experiment: Binding affinity to amylase by microarray at 0.5 uM.
Assay [8] in a line: Inhibition of trivalent GlcNAc binding to wheat germ agglutinin without irradiation by microarray. More on the design: species or system Triticum aestivum.
Assay [9] addresses T1, Ovalbumin (Gallus gallus) (UniProt P01012).
T1 sequence (whole entry): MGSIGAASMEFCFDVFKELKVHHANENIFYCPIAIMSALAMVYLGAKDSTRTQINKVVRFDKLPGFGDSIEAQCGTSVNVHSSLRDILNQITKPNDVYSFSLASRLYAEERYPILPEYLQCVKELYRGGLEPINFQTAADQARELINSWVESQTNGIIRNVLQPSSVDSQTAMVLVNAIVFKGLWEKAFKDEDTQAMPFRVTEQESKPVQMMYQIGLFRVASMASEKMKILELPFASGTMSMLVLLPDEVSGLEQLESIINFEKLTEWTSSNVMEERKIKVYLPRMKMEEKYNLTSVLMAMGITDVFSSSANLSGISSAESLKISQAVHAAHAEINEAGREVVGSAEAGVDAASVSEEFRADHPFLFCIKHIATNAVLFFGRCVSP
As to the kind of experiment: Binding affinity to ovalbumin by microarray at 0.5 uM.

For assay [10], the species on record is Homo sapiens. As to the kind of experiment: Binding affinity to collagenase by microarray at 0.5 uM.
In assay [11] the test system is Canavalia. As to the kind of experiment: Binding affinity to Concanavalin A by microarray at 0.5 uM.
Assay [12] has as its target Trypsin (Homo sapiens) (UniProt P07477+P07478+P35030). As to the kind of experiment: Binding affinity to trypsin by microarray at 0.5 uM. The class given is protein assay.
Assay [13] relates to Aleuria aurantia. As to the kind of experiment: Binding affinity to Aleuria Aurantia lectin by microarray at 0.5 uM.
Assay [14] is filed under the species Homo sapiens. As to the kind of experiment: Binding affinity to alkaline phosphatase by microarray at 0.5 uM.
The species named for assay [15] is Homo sapiens. As to the kind of experiment: Binding affinity to pepsin by microarray at 0.5 uM.
The species named for assay [16] is Homo sapiens. As to the kind of experiment: Binding affinity to hyaluronidase by microarray at 0.5 uM.
The species named for assay [17] is Homo sapiens. As to the kind of experiment: Binding affinity to myokinase by microarray at 0.5 uM.
In assay [18] the test system is Triticum aestivum. As to the kind of experiment: Binding affinity to wheat germ agglutinin by microarray at 0.5 uM.
The species named for assay [19] is Homo sapiens. As to the kind of experiment: Binding affinity to RNase A by microarray at 0.5 uM.
Assay [20] deals with Streptavidin (Streptomyces avidinii) (UniProt P22629). As to the kind of experiment: Binding affinity to streptavidin by microarray.
For assay [21], the system named is Ricinus communis. As to the kind of experiment: Binding affinity to Ricinus communis agglutinin 120 by microarray at 0.5 uM.

The values that follow come from ChEMBL document CHEMBL1148675, “Protein microarrays to study carbohydrate-recognition events” (Bioorg Med Chem Lett, 2006).

The structures appear in SMILES notation. Calls of active or inactive are those of the source. The calls are words filed in the database; no cut-off is given here.

Streptavidin (Streptomyces avidinii), sequence (P22629 whole entry): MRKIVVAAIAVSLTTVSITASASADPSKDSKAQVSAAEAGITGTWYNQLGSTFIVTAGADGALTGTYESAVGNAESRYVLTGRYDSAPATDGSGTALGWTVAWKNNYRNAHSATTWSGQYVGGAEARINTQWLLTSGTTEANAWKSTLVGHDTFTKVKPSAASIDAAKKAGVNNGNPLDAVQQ
Antithrombin-III (Homo sapiens), sequence (P01008 whole entry): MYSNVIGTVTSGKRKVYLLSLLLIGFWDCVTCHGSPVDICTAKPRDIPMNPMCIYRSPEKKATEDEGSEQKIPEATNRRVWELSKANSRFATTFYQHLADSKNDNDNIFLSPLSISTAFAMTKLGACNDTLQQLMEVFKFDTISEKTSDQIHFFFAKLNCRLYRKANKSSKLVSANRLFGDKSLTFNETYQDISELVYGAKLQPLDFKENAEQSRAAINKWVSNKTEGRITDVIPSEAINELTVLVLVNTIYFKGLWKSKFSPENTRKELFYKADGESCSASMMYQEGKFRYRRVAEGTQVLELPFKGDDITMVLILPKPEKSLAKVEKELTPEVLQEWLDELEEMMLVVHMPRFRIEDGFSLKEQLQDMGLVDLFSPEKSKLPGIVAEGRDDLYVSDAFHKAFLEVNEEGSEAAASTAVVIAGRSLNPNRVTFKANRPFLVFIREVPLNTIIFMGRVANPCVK
Insulin (Homo sapiens), sequence (P01308 whole entry): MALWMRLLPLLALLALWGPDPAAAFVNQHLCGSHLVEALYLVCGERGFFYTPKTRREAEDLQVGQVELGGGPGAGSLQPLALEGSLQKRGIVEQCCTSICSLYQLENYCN

Turning to `CC(=O)N[C@H]1[C@H](OCCNC(=O)CCC(=O)NCCCC[C@H](NC(=O)CCC(=O)NCCO[C@@H]2O[C@H](CO)[C@@H](O)[C@H](O)[C@H]2NC(C)=O)C(=O)N[C@@H](CCCCNC(=O)[C@H](COCc2ccc(C(=O)c3ccccc3)cc2)NC(=O)CCC(=O)NCCO[C@@H]2O[C@H](CO)[C@@H](O)[C@H](O)[C@H]2NC(C)=O)C(=O)NCCCOCCOCCOCCCNC(=O)CCC(=O)NCCOCCOCCNC(=O)CCCCN2CCC(C)(C)/C2=C\C=C\C2=[N+](C)c3ccccc3C2(C)C)O[C@H](CO)[C@@H](O)[C@@H]1O`, the outcome in [1], in assay [2], in [3], in [4], in [6] and in assay [7] was inactive. Moreover, the outcome in assay [9], in assay [10], in assay [11], in [12], in assay [13] and in [14] was inactive. Also, the result in assay [15], in [16], in assay [17], in assay [19] and in assay [20] was inactive. The results for the IC50 in assay [5] and in assay [8] were 17 mM and 7.9 mM, respectively. In addition, in [18], the result was Active.
For `C[C@H]1O[C@H](OCCNC(=O)CCC(=O)NCCCC[C@H](NC(=O)CCC(=O)NCCO[C@H]2O[C@H](C)[C@H](O)[C@H](O)[C@H]2O)C(=O)N[C@@H](CCCCNC(=O)[C@H](COCc2ccc(C(=O)c3ccccc3)cc2)NC(=O)CCC(=O)NCCO[C@H]2O[C@H](C)[C@H](O)[C@H](O)[C@H]2O)C(=O)NCCCOCCOCCOCCCNC(=O)CCC(=O)NCCOCCOCCNC(=O)CCCCN2CCC(C)(C)/C2=C\C=C\C2=[N+](C)c3ccccc3C2(C)C)[C@H](O)[C@@H](O)[C@H]1O`, the outcome in [1], in assay [2], in assay [3], in [4], in [6] and in [7] was inactive. Further, the result in assay [9], in [10], in assay [11], in [12], in assay [14] and in assay [15] was inactive. Also, the outcome in assay [16], in [17], in assay [18], in assay [19] and in [20] was inactive. Moreover, the outcome in assay [13] was Active.
For the molecule `CC(=O)N[C@H]1[C@@H](OCCNC(=O)CCC(=O)NCCCC[C@H](NC(=O)CCC(=O)NCCO[C@H]2O[C@H](CO)[C@@H](O[C@@H]3O[C@H](CO)[C@H](O)[C@H](O)[C@H]3O)[C@H](O)[C@H]2NC(C)=O)C(=O)N[C@@H](CCCCNC(=O)[C@H](COCc2ccc(C(=O)c3ccccc3)cc2)NC(=O)CCC(=O)NCCO[C@H]2O[C@H](CO)[C@@H](O[C@@H]3O[C@H](CO)[C@H](O)[C@H](O)[C@H]3O)[C@H](O)[C@H]2NC(C)=O)C(=O)NCCCOCCOCCOCCCNC(=O)CCC(=O)NCCOCCOCCNC(=O)CCCCN2CCC(C)(C)/C2=C\C=C\C2=[N+](C)c3ccccc3C2(C)C)O[C@H](CO)[C@@H](O[C@@H]2O[C@H](CO)[C@H](O)[C@H](O)[C@H]2O)[C@@H]1O`, the result in assay [1], in assay [2], in assay [3], in assay [4], in [6] and in assay [7] was inactive. The outcome in [9], in [10], in [11], in [12], in assay [13] and in [14] was inactive. The result in assay [15], in assay [16], in assay [17], in assay [19] and in assay [20] was inactive. Moreover, the result in assay [21] and in assay [18] was Active.

A word on the IC50: it is the concentration that inhibits the measured activity by half.
